Data taken from patent publication US20250375430A1, “USE OF DIHYDROBERBERINE TO PROMOTE RECRUITMENT AND ACTIVATION OF BROWN ADIPOSE TISSUES” (NANJING NUTRABUILDING BIO-TECH CO., LTD., priority 2023, published 2025).

Key:
obese db/db mice = conditions: cited from earlier work
brown adipocyte = conditions: by increasing transcription of PRDM16 via AMPK activation and PGC-1α recruitment; cited from earlier work
C57BL/6J mice [1] = test: Energy expenditure by comprehensive lab animal monitoring system (CLAMS), indirect calorimeter; format: in vivo
Protocol: Six-week-old male C57BL/6J mice were housed in a temperature-and relative humidity-controlled room (22±2° C., 55±5%) with a 12 h light-dark cycle and free access to food and water. For chronic anti-obesity studies, all mice were fed the high-fat diet (HFD, 60% calories from fat, 20% calories from protein, 20% calories from carbohydrate) for 8 weeks. At 14 weeks of age, all mice were randomly divided into 3 groups of 10 animals: (1) non-supplement group (Con Food only, Group 1); (2) DHB supplement group (DHB+Food. 50 mg/kg, Group 2); (3) DHB supplement group (DHB+Food, 100 mg/kg, Group 3). The mice in group 2 and group 3 were intraperitoneal injection (i.p.) administrated with DHB in normal saline solution daily for 6 weeks between 9:30 and 11:30 am, and food and water were given ad libitum. A key factor for controlling energy homoeostasis is the balance between caloric intake and energy expenditure. We analyzed the actions of DHB on energy expenditure using comprehensive lab animal monitoring system (CLAMS). Metabolic analysis was conducted between 8:30 am and 7:30 pm at the last week of experiment to identify […]. O2 consumption, CO2 production, and locomotor activity were measured using a 16-chamber indirect calorimeter. The mice were acclimated to the system for 20-24 h, and measurement of VO2 and VCO2 was performed during the next 24 h. The mice were maintained at 24° C. under a 12 h light/dark cycle. Food and water were available ad libitum. Voluntary activity was derived from the x-axis beam breaks monitored every 15 min. Heat production (energy expenditure) was calculated using the following equation: [formula] where heat is measured in kcal h^−1, VO2 is measured in litres kg^−1 h^−1 and body weight is measured in kg.

C57BL/6J mice [2] = test: Insulin tolerance test (ITT); format: in vivo; conditions: FIG. 6
Protocol: (§1) Six-week-old male C57BL/6J mice were housed in a temperature-and relative humidity-controlled room (22±2° C., 55±5%) with a 12 h light-dark cycle and free access to food and water. For chronic anti-obesity studies, all mice were fed the high-fat diet (HFD, 60% calories from fat, 20% calories from protein, 20% calories from carbohydrate) for 8 weeks. At 14 weeks of age, all mice were randomly divided into 3 groups of 10 animals: (1) non-supplement group (Con Food only, Group 1); (2) DHB supplement group (DHB+Food. 50 mg/kg, Group 2); (3) DHB supplement group (DHB+Food, 100 mg/kg, Group 3). The mice in group 2 and group 3 were intraperitoneal injection (i.p.) administrated with DHB in normal saline solution daily for 6 weeks between 9:30 and 11:30 am, and food and water were given ad libitum. An insulin tolerance test (ITT) was performed by using a glucose analyzer in the 6-h fasting mice in the 5th week of the supplementation. The glucose concentrations were measured by venous bleeding at 0, 15, 30, 60 and 120 min after an i.p. injection of human insulin at 1 U/kg.

C57BL/6J mice [3] = test: i.p. glucose tolerance test (GTT) in obese mice; format: in vivo; conditions: 4th week of supplementation; glucose 0.75 g/kg i.p.; 0-120 min; especially higher dose; FIG. 5
Protocol: as §1, with “libitum.” for “libitum. An insulin tolerance test (ITT) was performed by using a glucose analyzer in the 6-h fasting mice in the 5th week of the supplementation. The glucose concentrations were measured by venous bleeding at 0, 15, 30, 60 and 120 min after an i.p. injection of human insulin at 1 U/kg.”

BAT = test: 18F-FDG uptake in BAT by PET/CT; format: in vivo, mice; conditions: PET/CT 60 min after tracer; fasted overnight; FIG. 14
Protocol: as §1, with “[…] [formula]” for “An insulin tolerance test (ITT) was performed by using a glucose analyzer in the 6-h fasting mice in the 5th week of the supplementation. The glucose concentrations were measured by venous bleeding at 0, 15, 30, 60 and 120 min after an i.p. injection of human insulin at 1 U/kg.”

C57BL/6J mice [4] = test: Plasma TC, TG, LDL, VLDL measured with kits in high-fat diet mice; format: in vivo
Protocol: Six-week-old male C57BL/6J mice were housed in a temperature-and relative humidity-controlled room (22±2° C., 55±5%) with a 12 h light-dark cycle and free access to food and water. For chronic anti-obesity studies, all mice were fed the high-fat diet (HFD, 60% calories from fat, 20% calories from protein, 20% calories from carbohydrate) for 8 weeks. At 14 weeks of age, all mice were randomly divided into 3 groups of 10 animals: (1) non-supplement group (Con Food only, Group 1); (2) DHB supplement group (DHB+Food. 50 mg/kg, Group 2); (3) DHB supplement group (DHB+Food, 100 mg/kg, Group 3). After an eight-week induction, the mice in group I were intraperitoneal injection (i.p.) administrated with normal saline between 9:30 and 11:30 am, and food and water were given ad libitum. The mice in group 2 and group 3 were intraperitoneal injection (i.p.) administrated with DHB in normal saline solution daily for 6 weeks between 9:30 and 11:30 am, and food and water were given ad libitum. The total experimental time is 14 weeks, including two periods: an eight-week induction period and a subsequent six-week supplement period. Plasma total cholesterol (TC), triglyceride (TG), low-density lipoprotein (LDL), and very low-density lipoprotein (VLDL) were measured using corresponding kits according to the manufacturers' instructions.

C57BL/6J mice [5] = test: Rectal temperature in the cold room; format: in vivo; conditions: cold room 4-8° C.; 9th and 14th week; FIG. 15
Protocol: as §1, with “libitum.” for “libitum. An insulin tolerance test (ITT) was performed by using a glucose analyzer in the 6-h fasting mice in the 5th week of the supplementation. The glucose concentrations were measured by venous bleeding at 0, 15, 30, 60 and 120 min after an i.p. injection of human insulin at 1 U/kg.”

UCP1, PRDM16 and PGC-1α = test: Expression levels of UCP1, PRDM16 and PGC-1α (FIG. 10); format: in vivo; conditions: relative to mice without DHB
Protocol: as §1, with “libitum.” for “libitum. An insulin tolerance test (ITT) was performed by using a glucose analyzer in the 6-h fasting mice in the 5th week of the supplementation. The glucose concentrations were measured by venous bleeding at 0, 15, 30, 60 and 120 min after an i.p. injection of human insulin at 1 U/kg.”

UCP1 and PGC-1α = test: mRNA levels of brown fat-enriched genes in adipose tissues (inguinal WAT) by real-time PCR; format: in vivo, mice
Protocol: Six-week-old male C57BL/6J mice were housed in a temperature-and relative humidity-controlled room (22±2° C., 55±5%) with a 12 h light-dark cycle and free access to food and water. For chronic anti-obesity studies, all mice were fed the high-fat diet (HFD, 60% calories from fat, 20% calories from protein, 20% calories from carbohydrate) for 8 weeks.
At 14 weeks of age, all mice were randomly divided into 3 groups of 10 animals: (1) non-supplement group (Con Food only, Group 1); (2) DHB supplement group (DHB+Food. 50 mg/kg, Group 2); (3) DHB supplement group (DHB+Food, 100 mg/kg, Group 3).
The mice in group 2 and group 3 were intraperitoneal injection (i.p.) administrated with DHB in normal saline solution daily for 6 weeks between 9:30 and 11:30 am, and food and water were given ad libitum.
At the end of the study, all mice were anesthetized with chloral hydrate, all relevant tissues like inguinal and perirenal adipose were dissected, weighed, immediately frozen in liquid nitrogen, and stored at −80° C.
The mRNA levels of brown fat-enriched genes such as UCP1 and PGC-1α from adipose tissues (like inguinal WAT) were determined by real-time PCR analysis.

C57BL/6J mice [6] = test: Body weight and fat mass by nuclear magnetic resonance body composition analyzer; format: in vivo
Protocol: as §1, with “The body weight and fat mass of all mice were” for “An insulin tolerance test (ITT) was”, “the nuclear magnetic resonance body composition” for “using a glucose”, “analyzer by Nuclear Magnetic Resonance Body Composition Analyzer” for “analyzer”, “accordance with manufacturer's instruction. The body weight and fat mass were tested weekly (9-14 weeks) and at 9th and 14th” for “the 6-h fasting mice in the 5th”, “before supplementation” for “of the supplementation. The glucose concentrations were measured by venous bleeding at 0, 15, 30, 60”, “feeding, respectively.” for “120 min after an i.p. injection of human insulin at 1 U/kg.”

[7] = in vitro; cited from earlier work
[8] = mice, including mice lacking intestinal bacteria needed to break down BBR; cited from earlier work
[9] = 100 mg/kg compared with 50 mg/kg
[10] = adipose tissue (inguinal WAT), real-time PCR, relative to mice without DHB, FIG. 9

## COc1ccc2cc3[n+](cc2c1OC)CCc1cc2c(cc1-3)OCO2 [BBR, berberine]
Obese db/db mice
  energy expenditure and adaptive thermogenesis: increase
  thermogenic program in BAT: promote the thermogenic program in BAT
  weight gain: reduce weight gain
Brown adipocyte
  brown adipocyte differentiation and BAT thermogenesis: promote

## COc1ccc2c(c1OC)CN1CCc3cc4c(cc3C1=C2)OCO4 [DHB, dihydroberberine]
C57BL/6J mice [1]; [9]
  BAT thermogenesis and energy expenditure, higher dose than lower dose: greater effects
C57BL/6J mice [1]; 24 h period, FIG. 13
  BAT thermogenesis and energy expenditure: beneficial effects
C57BL/6J mice [1]; through a 12-h light/dark cycle, 24 h period, 24° C., FIG. 11
  oxygen consumption (VO2) rate: markedly higher
C57BL/6J mice [1]; through a 12-h light/dark cycle, 24 h period, 24° C., FIG. 12
  carbon dioxide production (VCO2) rate: markedly higher
C57BL/6J mice [2]; [9]
  insulin tolerance test result, higher-dose group: better result
C57BL/6J mice [2]; 5th week of supplementation, 6-h fasting, human insulin 1 U/kg i.p.
  insulin tolerance test result: ameliorated glucose tolerance
C57BL/6J mice [3]
  tolerance to a glucose load (i.p. glucose tolerance test): better tolerance to a glucose load
BAT
  total accumulated amount of 18F-FDG in BAT: increase the accumulated amount
C57BL/6J mice [4]; [9]
  improving biomarkers related to lipid mobilization, higher dose than lower dose: greater effects
C57BL/6J mice [4]; plasma, HFD mice, DHB i.p. 50 or 100 mg/kg daily for 6 weeks, relative to mice without DHB, FIG. 1
  TG level: lower levels
C57BL/6J mice [4]; plasma, HFD mice, DHB i.p. 50 or 100 mg/kg daily for 6 weeks, relative to mice without DHB, FIG. 2
  TC level: lower levels
C57BL/6J mice [4]; plasma, HFD mice, DHB i.p. 50 or 100 mg/kg daily for 6 weeks, relative to mice without DHB, FIG. 3
  LDL level: lower levels
C57BL/6J mice [4]; plasma, HFD mice, DHB i.p. 50 or 100 mg/kg daily for 6 weeks, relative to mice without DHB, FIG. 4
  VLDL level: lower levels
C57BL/6J mice [5]
  rectal temperature: higher
UCP1, PRDM16 and PGC-1α
  expression of PGC-1α: increase the expression
  expression of PRDM16: increase the expression
  expression of UCP1: increase the expression
UCP1 and PGC-1α; [9]
  browning of white fat, higher dose than lower dose: greater effects
UCP1 and PGC-1α; [10]
  PGC-1α mRNA level: higher levels
  UCP1 mRNA level: higher levels
C57BL/6J mice [6]; group 2 and 3 (50 and 100 mg/kg), 6 weeks of treatment, week 9 to 14, FIG. 7
  body weight (weight gain): obviously protected from weight gain
C57BL/6J mice [6]; group 3 (100 mg/kg), 9th and 14th week, FIG. 8
  fat mass percentage (fat accumulation): inhibited fat accumulation better
C57BL/6J mice [6]; relative to mice without DHB supplementation
  body fat percentage: decreases body fat percentage
[7]
  intestinal absorption rate relative to BBR: five times higher
[8]
  absorption relative to BBR: better absorbed
